From patent publication US8957114B2, “Formulations, salts and polymorphs of transnorsertraline and uses thereof” (Sunovion Pharmaceuticals Inc., priority 2009, dated 2015) come the findings set out here.

Type in all cases: physicochemical
Data set [1] in a line: Stability of isolated degradants of formula (III) fractions. Particulars: for compound converted: in the presence of NH4OAc, after 24 hours; for stability of freshly isolated fractions: without NH4OAc, a few days at room temperature. As to the method:
Degradation products of active were isolated using semi-preparative HPLC (Zorbax SB-SN, 5 um, 9.2×250 mm; 20% ACN/H2O with 0.1% formic acid as mobile phase, 4 mL/min) with the aforementioned open dish degradation sample. Fractions containing these impurities were neutralized with 0.1 M NH4OAc before drying under vacuum to prevent possible decomposition.
Impurities 3 and 4 share the same molecular weight of 323 with almost identical MS fragmentation pattern. After the isolation and drying process, it was noticed that impurities 3 and 4 were converted to impurities 1 and 2 respectively (by HPLC retention time, MS data and ^1H NMR spectrum).
However, in the presence of NH4OAc, almost 50% of the compounds were converted after 24 hours. Furthermore, it was observed that upon drying under vacuum, Degradants III-c and III-d were converted to Degradants III-a and III-b independent of the presence of NH4OAc. Because the molecular formula difference between Degradants III-c and III-a was one oxygen atom as measured by HR-MS, it was concluded that Degradants […] and III-d were a diasteromeric pair of 4-hydroperoxy transnorsertraline. The conversions from impurity 3 and Degradant III-d to Degradants III-a and III-b may be by a decomposition process of hydroperoxides.

A short description of data set [2]: Stability of transnorsertraline HCl blends with mannitol lots containing mannose, amount of degradant II (open dish 30° C./65% RH, HPLC). The text has this:
The amount of conjugate degradant leveled off at about two weeks and then slightly declined as stress time increases. Formation of the degradant of formula II also depends on the temperature.
The amount of mannose in mannitol appeared to be the controlling factor, not the type of mannitol used in transnorsertraline HCl formulation (i.e., crystalline vs. spray dried). This was later confirmed from the results obtained using recrystallized mannitol samples spiked with mannose in the stability study of transnorsertraline HCl formulations.
Three recrystallized mannitol lots spiked with mannose were selected for further study based on their % mannose values. Crystalline mannitol and spray dried mannitol were used as controls. The recrystallized spray dried mannitol lot was also used in the study to determine whether the type of mannitol used (crystalline vs. spray dried) was significant. Transnorsertraline HCl blends were made using the selected mannitol lots and placed at 30° C./65% RH under open dish conditions and analyzed initially and then at 2, 4 and 6 weeks using HPLC.

The nature of data set [3]: Solid stability of transnorsertraline salts (HPLC impurities). Particulars: HDPE container. The procedure: Salts of transnorsertraline were tested for solid stability under various conditions. Solid samples of the HCl salt were placed in double-polyehylene lined high density polyethylene (HDPE) containers closed with HDPE lids and stored at 25° C./60% relative humidity or 40° C./75% relative humidity. Samples were analyzed by HPLC.

Data set [4] in a line: Polymorphic conversion of anhydrous transnorsertraline hydrochloride to hydrate in aqueous media, in-situ Raman monitoring. Particulars: for form conversion completed / start of form conversion to hydrate / end of form conversion: 37° C. As to the method: The study of the conversion of anhydrous transnorsertraline hydrochloride to the hydrate form in aqueous media was investigated, using in-situ Raman monitoring.
Raman spectroscopy was performed using a Kaiser Optical Systems Inc. dispersive RamanRXN3 for on-line or in-situ reaction monitoring. The RamanRXN3 system uses an excitation wavelength of 785 nm, with an external cavity-stabilized, diode laser. All spectra were acquired using a ¼″ immersion probe with approximately 100 mW of laser power at the tip of the probe. Different exposure times and numbers of spectrum accumulations were used for the analysis of the two dry samples. An exposure time of 4 seconds with 2 accumulations was used for the monitoring of all form conversions experiments. Wavelength and laser wavelength calibration were performed using an internal neon standard, and diamond Raman shift standard, respectively. The intensity calibration was performed using a Kaiser Raman calibration accessory.
Regions 660-715 cm^−1 and 1430-1490 cm^−1 in particular show little overlapping of the peaks characteristic of each form. Experimental results confirmed that no peaks in the regions […] and 1430-1490 cm^−1 were likely to overlap with peaks of interest to follow the conversion between the two crystalline forms of transnorsertraline hydrochloride.
The conversion of anhydrous transnorsertraline hydrochloride to the monohydrate form was monitored in water. […] Based on the peak intensity ratio I(677 cm^−1)/I(695 cm^−1), an induction time of approximately 1.1 hour was seen before the beginning of the conversion. The end of the conversion was estimated at approximately 2 hours from the beginning of the slurry. […] XRPD analysis of the solids collected at the end of the Raman monitoring of the conversion (after approximately 2 h 10 min) was consistent with the hydrate form, with a small amount of anhydrous form detectable. […] Additionally, the Raman limit of detection of the anhydrous form in the mixture was not estimated.
The conversion of anhydrous transnorsertraline hydrochloride to the hydrate form in water, simulated gastric fluid (SGF) and simulated intestinal fluid (SIF) without enzymes, and 0.1N HCl was monitored at 37° C.
Overall, similar results were obtained in water and simulated gastric fluid, with the start of the form conversion detected at approximately 1.3 hours, with a slightly faster conversion in simulated gastric fluid compared to water. The complete conversion was estimated to occur within 3 to 4 hours in the two media. […] XPRD analysis of the solids collected at the end of each experiments were consistent with the hydrate form, with or without some anhydrous form present. The small amount of anhydrous form may be due to residual solids on the walls of the vessel at the time of the slurry.

Where [5] appears, read: SIF without enzymes, small scale.

As to `N[C@@H]1CCC(OO)(c2ccc(Cl)c(Cl)c2)c2ccccc21` (single isomer, unassigned) [Degradant-III-c, 4-hydroperoxy transnorsertraline], in data set [1], the compound converted was approximately 50% and the “stability of freshly isolated fractions” value is “relatively stable”.
Regarding `N[C@@H]1CCC(OO)(c2ccc(Cl)c(Cl)c2)c2ccccc21` (single isomer, unassigned) [III-d, 4-hydroperoxy transnorsertraline], in data set [1], the compound converted is recorded as approximately 50% and the “stability of freshly isolated fractions” value is “relatively stable”.
With `OCC1OC(NC2CCC(c3ccc(Cl)c(Cl)c3)c3ccccc32)C(O)C(O)C1O` (stereo not shown) [degradant of formula II], in data set [2], the “behaviour of degradant at higher temperature” value is “underwent decomposition”.
With “transnorsertraline hydrochloride anhydrate”, the “impurities (HPLC)” value is “less than 0.05%” in data set [3] (25° C./60% RH and 40° C./75% RH, at least 6 months); “less than 0.1%” in data set [3] (25° C./60% relative humidity, 2 years). The form conversion completed in data set [4] (0.1N HCl), in data set [4] (SGF without enzymes) and in data set [4] (water) was 3 to 4 h each time. Also, the “start of form conversion to hydrate” value in data set [4] (0.1N HCl) was approximately 2 h; in data set [4] (SGF without enzymes), “approximately 1.3 hours”; in data set [4] (SIF without enzymes, larger scale), approximately 19 h; in data set [4] (setting [5]), “approximately 10 hours”; in data set [4] (water) it was “approximately 1.3 hours”. Moreover, the “end of form conversion” value is approximately 36 h in data set [4] (SIF without enzymes, large scale) and “approximately 12.5 hours” in data set [4] (setting [5]). Further, the “induction time before the beginning of the conversion to monohydrate” value in data set [4] (slurry in water, Raman peak ratio I(677)/I(695)) is reported as “approximately 1.1 hour”. For the same compound, in data set [4] (slurry in water, from the beginning of the slurry), the “end of the conversion to monohydrate” value is listed as “approximately 2 hours”.
